Assay [1] has as its target T1, Alpha-1D adrenergic receptor (Homo sapiens, UniProt P25100). Further: in other assays of this panel Not Active means under 50% inhibition at 10 µM.
T1 sequence (P25100 whole entry): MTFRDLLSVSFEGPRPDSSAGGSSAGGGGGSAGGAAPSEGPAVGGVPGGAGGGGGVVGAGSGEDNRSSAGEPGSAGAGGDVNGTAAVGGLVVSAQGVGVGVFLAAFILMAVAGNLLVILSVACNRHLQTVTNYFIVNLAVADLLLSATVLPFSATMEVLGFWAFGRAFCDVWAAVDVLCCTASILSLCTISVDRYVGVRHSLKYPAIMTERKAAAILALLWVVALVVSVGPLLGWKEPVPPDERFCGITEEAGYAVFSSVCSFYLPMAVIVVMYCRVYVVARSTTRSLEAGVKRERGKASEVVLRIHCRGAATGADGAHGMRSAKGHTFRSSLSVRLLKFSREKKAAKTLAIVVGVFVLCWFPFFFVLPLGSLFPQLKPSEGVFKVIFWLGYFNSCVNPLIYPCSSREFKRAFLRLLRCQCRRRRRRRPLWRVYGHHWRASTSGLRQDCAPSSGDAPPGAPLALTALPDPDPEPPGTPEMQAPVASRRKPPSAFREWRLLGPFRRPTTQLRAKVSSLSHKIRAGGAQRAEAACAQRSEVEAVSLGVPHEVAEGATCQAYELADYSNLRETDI
The assay is classed as cell membranes, HEK293, Membrane.

A short description of assay [2]: DRUGMATRIX: ATPase, Na+/K+ enzyme inhibition (substrate: ATP). Particulars: Not Active = under 50% inhibition at 10 µM. The assay is classed as tissue-based, Sus scrofa, Heart.
Assay [3] in a line: DRUGMATRIX: Glutamate, NMDA, Agonism radioligand binding (ligand: [3H] CGP-39653). It is filed as cell membranes, Rattus norvegicus, Wistar, Cerebral cortex, Membrane. The settings on record: Not Active = under 50% inhibition at 10 µM.
The nature of assay [4]: DRUGMATRIX: Interleukin IL-1 radioligand binding (ligand: [125I] interleukin 1beta). The settings on record: nih3t3; Not Active = under 50% inhibition at 10 µM. It is filed as cell membranes, Membrane.
Another assay deals with Melanocortin receptor 5 (Homo sapiens, UniProt P33032). It is filed as cell membranes, HEK293, Membrane. Particulars: hek293.
Sequence of Melanocortin receptor 5 (P33032 whole entry): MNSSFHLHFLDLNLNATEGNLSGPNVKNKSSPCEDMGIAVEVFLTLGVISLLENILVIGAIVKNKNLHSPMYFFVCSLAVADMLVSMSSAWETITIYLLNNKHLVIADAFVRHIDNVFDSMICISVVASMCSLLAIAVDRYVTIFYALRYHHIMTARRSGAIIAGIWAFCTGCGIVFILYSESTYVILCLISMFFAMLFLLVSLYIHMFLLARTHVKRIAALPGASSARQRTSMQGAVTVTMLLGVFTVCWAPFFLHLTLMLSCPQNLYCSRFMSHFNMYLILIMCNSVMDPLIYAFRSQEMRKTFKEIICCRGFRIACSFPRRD
Assay [5] can be described thus: DRUGMATRIX: Platelet-Derived Growth Factor (PDGF) radioligand binding (ligand: [125I] PDGF). It is filed as cell-based. The settings on record: nih3t3; Not Active = under 50% inhibition at 10 µM.
Another assay has as its target Acetylcholinesterase (Homo sapiens, UniProt P22303). The assay can be described thus: DRUGMATRIX: Acetylcholinesterase enzyme inhibition (substrate: acetylthiocholine). Particulars: hek293; Not Active = under 50% inhibition at 10 µM. The assay is classed as cell-based, HEK293.

SMILES strings stand for the structures.

Our source for the IC50 and Ki values is ChEMBL document CHEMBL1909046, “DrugMatrix in vitro pharmacology data”.

Sequence of Acetylcholinesterase (P22303 whole entry): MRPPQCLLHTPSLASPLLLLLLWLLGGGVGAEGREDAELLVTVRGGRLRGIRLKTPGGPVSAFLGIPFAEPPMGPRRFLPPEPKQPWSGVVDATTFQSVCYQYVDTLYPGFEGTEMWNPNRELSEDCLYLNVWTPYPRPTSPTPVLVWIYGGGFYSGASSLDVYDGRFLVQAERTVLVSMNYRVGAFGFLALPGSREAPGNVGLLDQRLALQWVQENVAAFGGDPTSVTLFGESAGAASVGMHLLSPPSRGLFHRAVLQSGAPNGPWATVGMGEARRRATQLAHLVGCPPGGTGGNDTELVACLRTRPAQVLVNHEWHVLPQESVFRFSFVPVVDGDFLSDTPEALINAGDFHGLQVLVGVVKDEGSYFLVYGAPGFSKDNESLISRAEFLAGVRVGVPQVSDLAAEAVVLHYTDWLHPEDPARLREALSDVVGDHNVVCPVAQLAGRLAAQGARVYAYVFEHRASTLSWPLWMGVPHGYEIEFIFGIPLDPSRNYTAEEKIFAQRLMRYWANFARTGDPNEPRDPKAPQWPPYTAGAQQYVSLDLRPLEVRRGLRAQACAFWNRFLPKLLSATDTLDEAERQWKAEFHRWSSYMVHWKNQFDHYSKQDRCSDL

Consider `NCCCNCCSP(=O)(O)O` [AMIFOSTINE], for which the IC50 entry (in assay [1] (hek293); in assay [2]; in assay [3]; in assay [4]; against Melanocortin receptor 5; in assay [5]) was “Not Active” each time. Further, the concentration for half-maximal inhibition (IC50) result against Acetylcholinesterase is recorded as “Not Active”. The inhibition constant (Ki) entry in assay [2], in assay [3], in assay [4] and in assay [5] was “Not Active” throughout.
Regarding `CN(C)CCC=C1c2ccccc2CCc2ccccc21` [AMITRIPTYLINE], the half-inhibitory concentration (IC50) in assay [1] (read-out: IC50) is 105 nM; in assay [2], “Not Active”; in assay [3] it was “Not Active”; in assay [4], “Not Active”; on Melanocortin receptor 5 it was “Not Active”; in assay [5] it was “Not Active”. Moreover, the IC50 result against Acetylcholinesterase is “Not Active”. For the same molecule, the Ki in assay [1] (read-out: Ki) was 52 nM; in assay [2], “Not Active”; in assay [3] it was “Not Active”; in assay [4] it was “Not Active”; in assay [5], “Not Active”.
Consider `CC(=O)Oc1ccccc1C(=O)O` [ASPIRIN], for which the IC50 entry (in assay [1] (hek293); in assay [2]; in assay [3]; in assay [4]; against Melanocortin receptor 5; in assay [5]) was “Not Active” in each case. For the same molecule, the concentration for half-maximal inhibition (IC50) entry against Acetylcholinesterase is reported as “Not Active”. Also, the inhibition constant Ki result in assay [2], in assay [3], in assay [4] and in assay [5] was “Not Active” throughout.
With `CC(C)c1c(C(=O)Nc2ccccc2)c(-c2ccccc2)c(-c2ccc(F)cc2)n1CC[C@@H](O)C[C@@H](O)CC(=O)O` [ATORVASTATIN], the IC50 entry (in assay [1] (hek293); in assay [2]; in assay [3]; in assay [4]; at Melanocortin receptor 5; in assay [5]) was “Not Active” in each case. Also, the IC50 result on Acetylcholinesterase is on record as “Not Active”. For the same molecule, the inhibitory constant (Ki) entry in assay [2], in assay [3], in assay [4] and in assay [5] was “Not Active” in each case.
With `CC(=O)OC[C@H]1O[C@@H](n2ncc(=O)[nH]c2=O)[C@H](OC(C)=O)[C@@H]1OC(C)=O` [AZARIBINE], the IC50 entry (in assay [1] (hek293); in assay [2]; in assay [3]; in assay [4]; against Melanocortin receptor 5; in assay [5]) was “Not Active” in each case. For the same molecule, the half-inhibitory concentration (IC50) result on Acetylcholinesterase is reported as “Not Active”. For the same molecule, the inhibition constant Ki entry in assay [2], in assay [3], in assay [4] and in assay [5] was “Not Active” throughout.
As for `C[C@H]1[C@H](NC(=O)/C(=N\OC(C)(C)C(=O)O)c2csc(N)n2)C(=O)N1S(=O)(=O)O` [AZTREONAM], the IC50 result (in assay [1] (hek293); in assay [2]; in assay [3]; in assay [4]; on Melanocortin receptor 5; in assay [5]) was “Not Active” in each case. Moreover, on Acetylcholinesterase, the IC50 result is reported as “Not Active”. The Ki result in assay [2], in assay [3], in assay [4] and in assay [5] was “Not Active” in each case.
With `O=C(O)CCNC(=O)c1ccc(/N=N/c2ccc(O)c(C(=O)O)c2)cc1` [BALSALAZIDE], the IC50 entry (in assay [1] (hek293); in assay [2]; in assay [3]; in assay [4]; against Melanocortin receptor 5; in assay [5]) was “Not Active” throughout. Also, the IC50 result on Acetylcholinesterase is “Not Active”. For the same molecule, the Ki entry in assay [2], in assay [3], in assay [4] and in assay [5] was “Not Active” throughout.
For `COc1cc(OC)c(C(=O)CCCN2CCCC2)c(OC)c1` [BUFLOMEDIL], the IC50 entry (in assay [1] (hek293); in assay [2]; in assay [3]; in assay [4]; on Melanocortin receptor 5; in assay [5]) was “Not Active” throughout. The 50% inhibitory concentration (IC50) result against Acetylcholinesterase is “Not Active”. In addition, the Ki result in assay [2], in assay [3], in assay [4] and in assay [5] was “Not Active” throughout.
Take `Cn1c(=O)c2c(ncn2C)n(C)c1=O` [CAFFEINE]: the half-inhibitory concentration (IC50) result (in assay [1] (hek293); in assay [2]; in assay [3]; in assay [4]; against Melanocortin receptor 5; in assay [5]) was “Not Active” in each case. For the same molecule, on Acetylcholinesterase, the IC50 result is given as “Not Active”. Further, the Ki result in assay [2], in assay [3], in assay [4] and in assay [5] was “Not Active” in each case.
Take `ClC(Cl)(Cl)Cl` [CARBON TETRACHLORIDE]: the half-inhibitory concentration (IC50) result (in assay [1] (hek293); in assay [2]; in assay [3]; in assay [4]; at Melanocortin receptor 5; in assay [5]) was “Not Active” each time. In addition, the 50% inhibitory concentration (IC50) entry against Acetylcholinesterase is on record as “Not Active”. Besides, the inhibition constant (Ki) result in assay [2], in assay [3], in assay [4] and in assay [5] was “Not Active” each time.
For `CO/N=C(\C(=O)N[C@@H]1C(=O)N2C(C(=O)O)=C(COC(C)=O)CS[C@H]12)c1csc(N)n1` [CEFOTAXIME], the IC50 result (in assay [1] (hek293); in assay [2]; in assay [3]; in assay [4]; at Melanocortin receptor 5; in assay [5]) was “Not Active” in each case. Also, the IC50 result on Acetylcholinesterase was “Not Active”. The Ki result in assay [2], in assay [3], in assay [4] and in assay [5] was “Not Active” throughout.
`CNC1=Nc2ccc(Cl)cc2C(c2ccccc2)=[N+]([O-])C1` [CHLORDIAZEPOXIDE]: the IC50 entry (in assay [1] (hek293); in assay [2]; in assay [3]; in assay [4]; on Melanocortin receptor 5; in assay [5]) was “Not Active” throughout. Further, the concentration for half-maximal inhibition (IC50) result at Acetylcholinesterase was “Not Active”. Further, the inhibition constant (Ki) result in assay [2], in assay [3], in assay [4] and in assay [5] was “Not Active” throughout.
With `Cc1cc(O)cc(C)c1Cl` [CHLOROXYLENOL], the half-maximal inhibitory concentration (IC50) entry (in assay [1] (hek293); in assay [2]; in assay [3]; in assay [4]; against Melanocortin receptor 5; in assay [5]) was “Not Active” throughout. In addition, the IC50 entry at Acetylcholinesterase is recorded as “Not Active”. The inhibition constant Ki entry in assay [2], in assay [3], in assay [4] and in assay [5] was “Not Active” in each case.
Take `CCCNC(=O)NS(=O)(=O)c1ccc(Cl)cc1` [CHLORPROPAMIDE]: the IC50 result (in assay [1] (hek293); in assay [2]; in assay [3]; in assay [4]; on Melanocortin receptor 5; in assay [5]) was “Not Active” in each case. Besides, the IC50 result against Acetylcholinesterase is “Not Active”. Besides, the Ki result in assay [2], in assay [3], in assay [4] and in assay [5] was “Not Active” each time.
Regarding `NS(=O)(=O)c1cc(C2(O)NC(=O)c3ccccc32)ccc1Cl` (stereo not drawn) [CHLORTHALIDONE], the IC50 result (in assay [1] (hek293); in assay [2]; in assay [3]; in assay [4]; against Melanocortin receptor 5; in assay [5]) was “Not Active” throughout. Moreover, on Acetylcholinesterase, the IC50 entry is “Not Active”. The inhibition constant (Ki) entry in assay [2], in assay [3], in assay [4] and in assay [5] was “Not Active” in each case.
Turning to `O=C(O)CC(O)(CC(=O)O)C(=O)O` [CITRIC ACID], the IC50 result (in assay [1] (hek293); in assay [2]; in assay [3]; in assay [4]; against Melanocortin receptor 5; in assay [5]) was “Not Active” in each case. Also, the IC50 result against Acetylcholinesterase is “Not Active”. Moreover, the inhibition constant (Ki) result in assay [2], in assay [3], in assay [4] and in assay [5] was “Not Active” throughout.
For the molecule `CC(C)NCC(O)c1ccccc1Cl` (stereo not drawn) [CLORPRENALINE], the IC50 result (in assay [1] (hek293); in assay [2]; in assay [3]; in assay [4]; against Melanocortin receptor 5; in assay [5]) was “Not Active” throughout. The half-maximal inhibitory concentration (IC50) result against Acetylcholinesterase is “Not Active”. Also, the Ki result in assay [2], in assay [3], in assay [4] and in assay [5] was “Not Active” each time.
